Experimental data from patent US4902799A, “Bicyclic alkoxy- and alkylthio-substituted aminoalcohols” (Maggioni-Winthrop S.p.A., priority 1985, dated 1990).
Where two headings read alike, the source gives them in different places.

Tests used:
Normolipemic rats = experiment: Hypolipemic activity in normolipemic rats; format: in vivo, rat (Sprague Dawley Nos male rats); conditions: for CHOL-HDL (in words) / serum TG (in words) / hypolipemic activity (in words): oral
platelet aggregation = experiment: Collagen-induced platelet aggregation ex vivo; format: in vivo, rat
in vivo = conditions: mouse, po
male mice = experiment: Anti-hypoxic activity (gasping time after decapitation); format: in vivo; conditions: Mus musculus, po, 100 mg/kg/p.o., read-out: Gasping time, % diff. from control
[1] = molecular target: alpha1-adrenergic receptors; conditions: (a) Qian et al. 1983 for Tibalosine; (b) Van Zwieten et al. 1985 for Urapidil; cited from earlier work
[2] = molecular target: T1, alpha2-adrenergic receptors (Rattus norvegicus, UniProt P22909); conditions: (a) Qian et al. 1983 for Tibalosine; (b) Van Zwieten et al. 1985 for Urapidil; cited from earlier work
T1 construct: from tissue; host or cells: rat brain membranes
T1 sequence (P22909 1-465): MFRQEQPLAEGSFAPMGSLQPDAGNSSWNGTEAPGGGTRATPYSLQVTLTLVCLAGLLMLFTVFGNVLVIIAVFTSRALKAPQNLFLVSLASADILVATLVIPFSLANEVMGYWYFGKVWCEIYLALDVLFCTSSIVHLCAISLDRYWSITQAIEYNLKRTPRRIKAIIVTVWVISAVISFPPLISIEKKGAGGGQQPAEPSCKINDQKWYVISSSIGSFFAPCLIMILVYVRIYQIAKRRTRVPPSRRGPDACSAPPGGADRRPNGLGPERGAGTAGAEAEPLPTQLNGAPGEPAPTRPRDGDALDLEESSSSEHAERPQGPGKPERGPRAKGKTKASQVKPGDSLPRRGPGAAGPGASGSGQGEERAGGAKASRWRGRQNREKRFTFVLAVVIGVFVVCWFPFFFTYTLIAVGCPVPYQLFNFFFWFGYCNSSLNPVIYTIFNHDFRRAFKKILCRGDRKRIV

[3] = tested on: SH rats (spontaneously hypertensive rats); experiment: Anti-hypertensive activity in spontaneously hypertensive rats, tail artery plethysmography; format: in vivo, rat; conditions: SHR
Procedure: The anti-hypertensive activity was tested on groups of 5 SH rats (spontaneously hypertensive rats) weighing 200±10 g, fasting for 18 hrs and treated orally with the invention compounds suspended in 2.5% gum arabic.
Changes in blood pressure (mm Hg) before (T=0) and after treatment (2, 4 and 6 hrs) were measured according to the method of tail artery plethysmography reported in "Spontaneously hypertensive rats (SHR): Guidlines for breeding, care and use", SHR Conference, 1976, page 11.
The arterial pressure before the treatment was 210±10 mmHg.

[4] = 0.15 mM/kg oral, blood 1 hr after treatment, collagen 2-4 mcg/ml

COc1ccc2cc(C(O)C(C)N3CCN(c4ccccc4)CC3)ccc2c1 (centres unmarked) [MG 38068, 2-(4-Phenyl-1-piperazinyl)-1-(6-methoxy-2-naphthyl)-propanol]
CHOL, % different from control (Normolipemic rats; 0.185 mM/kg/p.o. × 4 days): -3.7% | CHOL-HDL, % different from control (Normolipemic rats; 0.185 mM/kg/p.o. × 4 days): +5.0% | Liver Weight, % different from control (Normolipemic rats; 0.185 mM/kg/p.o. × 4 days): +2.6% | TG, % different from control (Normolipemic rats; 0.185 mM/kg/p.o. × 4 days): -45.0% | CHOL, % different from control (Normolipemic rats; 0.37 mM/kg/p.o. × 4 days): -21.8% | CHOL-HDL, % different from control (Normolipemic rats; 0.37 mM/kg/p.o. × 4 days): +32.9% | Liver Weight, % different from control (Normolipemic rats; 0.37 mM/kg/p.o. × 4 days): +0.3% | TG, % different from control (Normolipemic rats; 0.37 mM/kg/p.o. × 4 days): -56.9% | CHOL-HDL (in words) (Normolipemic rats): increase of CHOL-HDL | serum TG (in words) (Normolipemic rats): significative decrease of serum TG | % Inhibition, Aggregation rate (platelet aggregation; [4]): 54.4% | % Inhibition, Maximum aggregation (platelet aggregation; [4]): 58.8% | LD50 (in vivo): > 1000 mg/kg

COc1ccc2cc(C(O)C(C)N3CCN(c4ccccc4OC)CC3)ccc2c1 (stereo not drawn) [MG 38098, threo-2-[4-(2-Methoxyphenyl)-1-piperazinyl]-1-(6-methoxy-2-naphthyl)-propanol]
change in vivo at 100 mg/kg (male mice; pretreatment 90 min): 41.1%

COc1ccc2cc(C(O)C(C)N3CCC(NC(=O)c4ccccc4)CC3)ccc2c1 (centres unmarked) [MG 38127, 2-(4-Benzamido-1-piperidinyl)-1-(6-methoxy-2-naphthyl)-propanol]
CHOL, % different from control (Normolipemic rats; 0.023 mM/kg/p.o. × 4 days): -30.2% | CHOL-HDL, % different from control (Normolipemic rats; 0.023 mM/kg/p.o. × 4 days): +7.6% | Liver Weight, % different from control (Normolipemic rats; 0.023 mM/kg/p.o. × 4 days): -1.6% | TG, % different from control (Normolipemic rats; 0.023 mM/kg/p.o. × 4 days): -41.4% | CHOL, % different from control (Normolipemic rats; 0.046 mM/kg/p.o. × 4 days): -51.2% | CHOL-HDL, % different from control (Normolipemic rats; 0.046 mM/kg/p.o. × 4 days): -1.8% | Liver Weight, % different from control (Normolipemic rats; 0.046 mM/kg/p.o. × 4 days): +8.6% | TG, % different from control (Normolipemic rats; 0.046 mM/kg/p.o. × 4 days): -66.3% | CHOL, % different from control (Normolipemic rats; 0.185 mM/kg/p.o. × 4 days): -59.1% | CHOL-HDL, % different from control (Normolipemic rats; 0.185 mM/kg/p.o. × 4 days): -19.8% | Liver Weight, % different from control (Normolipemic rats; 0.185 mM/kg/p.o. × 4 days): +3.3% | TG, % different from control (Normolipemic rats; 0.185 mM/kg/p.o. × 4 days): -81.7% | hypolipemic activity (in words) (Normolipemic rats): good activity at very low doses

CCCCCCCCNC(C)C(O)c1ccc2cc(OC)ccc2c1 (centres unmarked) [MG 38077]
change in vivo at 100 mg/kg (male mice; pretreatment 90 min): 71%

CCCCCCCCNC(C)C(O)c1ccc(SC(C)C)cc1 (centres unmarked) [Suloctidil, reference compound]
% Inhibition, Aggregation rate (platelet aggregation; [4]): 57.5% | % Inhibition, Maximum aggregation (platelet aggregation; [4]): 69.0% | change in vivo at 100 mg/kg (male mice; pretreatment 45 min): 27.5% | change in vivo at 100 mg/kg (male mice; pretreatment 90 min): 11.7%

O=C1C(CC[S+]([O-])c2ccccc2)C(=O)N(c2ccccc2)N1c1ccccc1 (centres unmarked) [Sulfinpyrazone, reference compound]
% Inhibition, Aggregation rate (platelet aggregation; rat, in vivo, po): 89.0% | % Inhibition, Maximum aggregation (platelet aggregation; rat, in vivo, po): 92.5%

COc1ccccc1N1CCN(CCCNc2cc(=O)n(C)c(=O)n2C)CC1 [Urapidil]
IC50 [1]: 800 nM | IC50 [2]: 14 µM | Max. changes in systolic pressure ([3]; 1 mg/kg p.o.): -16 mmHg | Max. changes in systolic pressure ([3]; 5 mg/kg p.o.): -47 mmHg | Max. changes in systolic pressure ([3]; 15 mg/kg p.o.): -72.4 mmHg

COc1ccc2cc(C(O)C(C)N3CCC(NC(=O)c4ccccc4)CC3)ccc2c1 (centres unmarked) [MG 38105, 2-(4-Benzamido-1-piperidinyl)-1-(6-methoxy-2-naphthyl)-propanol]
CHOL, % different from control (Normolipemic rats; 0.023 mM/kg/p.o. × 4 days): -35.7% | CHOL-HDL, % different from control (Normolipemic rats; 0.023 mM/kg/p.o. × 4 days): -13.3% | Liver Weight, % different from control (Normolipemic rats; 0.023 mM/kg/p.o. × 4 days): +5.5% | TG, % different from control (Normolipemic rats; 0.023 mM/kg/p.o. × 4 days): -36.2% | CHOL, % different from control (Normolipemic rats; 0.046 mM/kg/p.o. × 4 days): -45.8% | CHOL-HDL, % different from control (Normolipemic rats; 0.046 mM/kg/p.o. × 4 days): +1.3% | Liver Weight, % different from control (Normolipemic rats; 0.046 mM/kg/p.o. × 4 days): +8.0% | TG, % different from control (Normolipemic rats; 0.046 mM/kg/p.o. × 4 days): -63.8% | CHOL, % different from control (Normolipemic rats; 0.185 mM/kg/p.o. × 4 days): -96.6% | CHOL-HDL, % different from control (Normolipemic rats; 0.185 mM/kg/p.o. × 4 days): +3.9% | Liver Weight, % different from control (Normolipemic rats; 0.185 mM/kg/p.o. × 4 days): +4.8% | TG, % different from control (Normolipemic rats; 0.185 mM/kg/p.o. × 4 days): -70.6% | hypolipemic activity (in words) (Normolipemic rats): good activity at very low doses

CSc1ccc2cc(C(O)C(C)N3CCN(C(=O)c4cccnc4)CC3)ccc2c1 (centres unmarked) [MG 28453, 2-[4-(3-Pyridinylcarbonyl)-1-piperazinyl]-1-(6-methylthio-2-naphthyl)-propanol]
CHOL, % different from control (Normolipemic rats; 0.185 mM/kg/p.o. × 4 days): +8.5% | CHOL-HDL, % different from control (Normolipemic rats; 0.185 mM/kg/p.o. × 4 days): +45.2% | Liver Weight, % different from control (Normolipemic rats; 0.185 mM/kg/p.o. × 4 days): +2.8% | TG, % different from control (Normolipemic rats; 0.185 mM/kg/p.o. × 4 days): -36.4% | CHOL, % different from control (Normolipemic rats; 0.37 mM/kg/p.o. × 4 days): -26.9% | CHOL-HDL, % different from control (Normolipemic rats; 0.37 mM/kg/p.o. × 4 days): +31.7% | Liver Weight, % different from control (Normolipemic rats; 0.37 mM/kg/p.o. × 4 days): +21.6% | TG, % different from control (Normolipemic rats; 0.37 mM/kg/p.o. × 4 days): -75.4% | CHOL-HDL (in words) (Normolipemic rats): increase of CHOL-HDL | serum TG (in words) (Normolipemic rats): significative decrease of serum TG

CC(C)(Sc1cc(C(C)(C)C)c(O)c(C(C)(C)C)c1)Sc1cc(C(C)(C)C)c(O)c(C(C)(C)C)c1 [Probucol, reference compound]
CHOL, % different from control (Normolipemic rats; 0.205 mM/kg/p.o. × 8 days): -25.0% | CHOL-HDL, % different from control (Normolipemic rats; 0.205 mM/kg/p.o. × 8 days): -26% | Liver Weight, % different from control (Normolipemic rats; 0.205 mM/kg/p.o. × 8 days): +4.0% | TG, % different from control (Normolipemic rats; 0.205 mM/kg/p.o. × 8 days): -28.0% | CHOL, % different from control (Normolipemic rats; 0.82 mM/kg/p.o. × 4 days): ~ 0% | CHOL-HDL, % different from control (Normolipemic rats; 0.82 mM/kg/p.o. × 4 days): +18.5% | Liver Weight, % different from control (Normolipemic rats; 0.82 mM/kg/p.o. × 4 days): ~ 0% | TG, % different from control (Normolipemic rats; 0.82 mM/kg/p.o. × 4 days): ~ 0% | hypolipemic activity (in words) (Normolipemic rats): moderate and is noted only after prolonged treatment (8 days)
